Measurements: patent USRE31731E, “Herbicidal 4-trifluoromethyl-4-nitrodiphenyl ethers” (priority 1978, dated 1984)

Legend:
Format in all cases: in vivo
Monocots [1] = assay: Herbicidal activity, postemergence, monocot weeds (Table II); conditions: post-emergence, 336 h, about 2 weeks, read-out: % control (percent of plants killed); for pest or weed control at 2241.7 g/ha: 2 lb./A.; for pest or weed control at 4483.4 g/ha: 4 lb./A.
Experimental: (§1) Using the procedure described below, diphenyl ethers were evaluated for control of the following weeds: […]
(§2) barnyardgrass (Echinochloa crusgalli) crabgrass (Digitaria spp.) nutsedge (Cyperus esculentus)
(§3) At 2 and 4 pounds per acre:
(§4) **Bermudagrass (Cynodon dactylon)
(§5) *downy brome (Bromus tectorum) foxtail (Setaria faberii)
(§6) Johnsongrass (Sorghum halepense) […]
(§7) quackgrass (Agropyron repens)
(§8) *ryegrass (Lolium perenne)
(§9) *yellow millet (Panicum miliaceum)
(§10) The following test procedure is employed. Seeds of selected crops and weeds are planted in soil in flats. For preemergence tests, the flats are treated with the test compound immediately after the planting. For postemergence tests, the seeds are allowed to germinate, and after 2 weeks the flats are treated with the test compound. The compound to be evaluated is dissolved in acetone, diluted with water, and sprayed over the flats using a carrier volume equivalent to 50 gallons per acre at the rate of application (pounds per acre, lb/A.) specified in the tables. About 2 weeks after the application of the test compound, the state of growth of the plants is observed and the phytotoxic effect of the compound is evaluated. Table II gives the average percent control achieved by the test compounds in terms of the percent of the plants which are killed by the compounds.

Monocots [2] = assay: Herbicidal activity, preemergence, monocot weeds (Table II); conditions: pre-emergence, 336 h, about 2 weeks, read-out: % control (percent of plants killed); for pest or weed control at 2241.7 g/ha: 2 lb./A.; for pest or weed control at 4483.4 g/ha: 4 lb./A.
Experimental: as §1, §2, §3, §4, §5, §6, §7, §8, §9, §10

Dicots [3] = assay: Herbicidal activity, postemergence, dicot weeds (Table II); conditions: post-emergence, 336 h, about 2 weeks, read-out: % control (percent of plants killed); for pest or weed control at 2241.7 g/ha: 2 lb./A.; for pest or weed control at 4483.4 g/ha: 4 lb./A.
Experimental: as §1
(§11) bindweed (Convolvulus arvensis) curly dock (Remex crispus) velvetleaf (Abutilon theophrasti) wild mustard (Brassica haber)
(§12) At 2 and 4 pounds per acre: […]
(§13) cocklebur (Xanthium pensylvanicum)
(§14) **coffeeweed (Sesbania macrocarpa)
(§15) *curly dock (Rumex crispus)
(§16) *lambsquarters (Chenopodium album) morningglory (Ipomoea purpurea)
(§17) *pigweed (Amaranthus retroflexus)
(§18) **ragweed (Ambrosia artemisiifolia)
(§19) *smartweed (Polygonum pensylvanicum)
(§20) **tomato (Lycopersicon esculentum)
(§21) *wild carrot (Daucus carota)
(§22) *wild mustard (Brassica haber)
as §10

Dicots [4] = assay: Herbicidal activity, preemergence, dicot weeds (Table II); conditions: pre-emergence, 336 h, about 2 weeks, read-out: % control (percent of plants killed); for pest or weed control at 2241.7 g/ha: 2 lb./A.; for pest or weed control at 4483.4 g/ha: 4 lb./A.
Experimental: as §1, §11, §12, §13, §14, §15, §16, §17, §18, §19, §20, §21, §22, §10

SMILES | pest or weed control at 2241.7 g/ha (Monocots [1]) [%] | pest or weed control at 4483.4 g/ha (Monocots [1]) [%] | pest or weed control at 2241.7 g/ha (Monocots [2]) [%] | pest or weed control at 4483.4 g/ha (Monocots [2]) [%] | pest or weed control at 2241.7 g/ha (Dicots [3]) [%] | pest or weed control at 4483.4 g/ha (Dicots [3]) [%] | pest or weed control at 2241.7 g/ha (Dicots [4]) [%] | pest or weed control at 4483.4 g/ha (Dicots [4]) [%]
C#CCOc1cc(Oc2ccc(C(F)(F)F)cc2Cl)ccc1[N+](=O)[O-] [Example 13] | 100 | 77 | 78 | 76 | 100 | 98 | 72 | 90
CC#CCCOc1cc(Oc2ccc(C(F)(F)F)cc2Cl)ccc1[N+](=O)[O-] [Example 14] | 91 | 61 | 30 | 64 | 100 | 94 | 22 | 78
O=[N+]([O-])c1ccc(Oc2ccc(C(F)(F)F)cc2Cl)cc1OCCO [Example 15, 2-chloro-α,α,α-trifluoro-p-tolyl-3-(2-hydroxyethoxy)-4-nitrophenyl ether] | 76 | 79 | 68 | 99 | 94 | 99 | 90 | 100
CCOCCOc1cc(Oc2ccc(C(F)(F)F)cc2Cl)ccc1[N+](=O)[O-] [Example 16] | 82 | 77 | 67 | 86 | 94 | 96 | 75 | 94
CN(C)CCOc1cc(Oc2ccc(C(F)(F)F)cc2Cl)ccc1[N+](=O)[O-] [Example 17, 2-chloro-α,α,α-trifluoro-p-tolyl-3-(2-dimethylaminoethoxy)-4-nitrophenyl ether] | 39 | 45 | 20 | 51 | 98 | 89 | 31 | 84
O=[N+]([O-])c1ccc(Oc2ccc(C(F)(F)F)cc2Cl)cc1NCCO [Example 22] | 70 | 60 | 63 | 72 | 100 | 99 | 77 | 98
O=C(O)COc1cc(Oc2ccc(C(F)(F)F)cc2Cl)ccc1[N+](=O)[O-] [Example 23] | 71 | 82 | 55 | 90 | 100 | 100 | 87 | 64
CCOC(=O)COc1cc(Oc2ccc(C(F)(F)F)cc2Cl)ccc1[N+](=O)[O-] [Example 24] | 84 | 86 | 62 | 91 | 100 | 99 | 97 | 68
CC(Oc1cc(Oc2ccc(C(F)(F)F)cc2Cl)ccc1[N+](=O)[O-])C(=O)O (stereo not drawn) [Example 25, 2-Chloro-α,α,α-trifluoro-p-tolyl-3-(1-carboxyethoxy)-4-nitrophenyl ether] | 88 | 97 | 40 | 87 | 100 | 100 | 93 | 88
Nc1cc(Oc2ccc(C(F)(F)F)cc2Cl)ccc1[N+](=O)[O-] [Example 27] | 99 | 82 | 74 | 76 | 100 | 100 | 90 | 98
